# Laboratory results as given in patent publication US12404279B2, “Deubiquitinase inhibitors and methods of use thereof” (Molecure S.A., priority 2021, dated 2025).
# Structures can show the parent of a compound that is named as a salt.
# Biological target: full-length USP7 (Homo sapiens (Human), UniProt Q93009)
# Assay: Enzymatic assay to determine IC50 of USP7 inhibitors (Ubiquitin-Rhodamine 110 cleavage)
# Assay type: biochemical
# Conditions: 0.5 nM USP7, 0.5 μM Ubiquitin-Rhodamine 110, 45 min at 37° C.
# Protocol: For the inhibitors disclosed herein, their potency was measured using the following method.
# A 45 μl reaction volume containing full-length USP7 (0.5 nM) in 50 mM HEPES pH 7.5, 150 mM NaCl, 1 mM DTT, 1 mg/ml BSA and 0.05% Tween20 was assembled in wells of 96 well half area black flat bottom plates. Test compounds were first dissolved to 25 mM stocks in DMSO and subsequently introduced to enzyme 15 min after USP7 incubation with DTT at room temperature. The enzymatic reaction was started by adding 0.5 μM Ubiquitin-Rhodamine 110 (final concentration) and allowed to proceed for 45 min at 37° C., 250 RPM shaking before Rhodamine fluorescence (485 nm excitation/520 nm emission) was measured using Tecan Spark M10 plate reader.
# full-length USP7, sequence (Q93009 whole entry): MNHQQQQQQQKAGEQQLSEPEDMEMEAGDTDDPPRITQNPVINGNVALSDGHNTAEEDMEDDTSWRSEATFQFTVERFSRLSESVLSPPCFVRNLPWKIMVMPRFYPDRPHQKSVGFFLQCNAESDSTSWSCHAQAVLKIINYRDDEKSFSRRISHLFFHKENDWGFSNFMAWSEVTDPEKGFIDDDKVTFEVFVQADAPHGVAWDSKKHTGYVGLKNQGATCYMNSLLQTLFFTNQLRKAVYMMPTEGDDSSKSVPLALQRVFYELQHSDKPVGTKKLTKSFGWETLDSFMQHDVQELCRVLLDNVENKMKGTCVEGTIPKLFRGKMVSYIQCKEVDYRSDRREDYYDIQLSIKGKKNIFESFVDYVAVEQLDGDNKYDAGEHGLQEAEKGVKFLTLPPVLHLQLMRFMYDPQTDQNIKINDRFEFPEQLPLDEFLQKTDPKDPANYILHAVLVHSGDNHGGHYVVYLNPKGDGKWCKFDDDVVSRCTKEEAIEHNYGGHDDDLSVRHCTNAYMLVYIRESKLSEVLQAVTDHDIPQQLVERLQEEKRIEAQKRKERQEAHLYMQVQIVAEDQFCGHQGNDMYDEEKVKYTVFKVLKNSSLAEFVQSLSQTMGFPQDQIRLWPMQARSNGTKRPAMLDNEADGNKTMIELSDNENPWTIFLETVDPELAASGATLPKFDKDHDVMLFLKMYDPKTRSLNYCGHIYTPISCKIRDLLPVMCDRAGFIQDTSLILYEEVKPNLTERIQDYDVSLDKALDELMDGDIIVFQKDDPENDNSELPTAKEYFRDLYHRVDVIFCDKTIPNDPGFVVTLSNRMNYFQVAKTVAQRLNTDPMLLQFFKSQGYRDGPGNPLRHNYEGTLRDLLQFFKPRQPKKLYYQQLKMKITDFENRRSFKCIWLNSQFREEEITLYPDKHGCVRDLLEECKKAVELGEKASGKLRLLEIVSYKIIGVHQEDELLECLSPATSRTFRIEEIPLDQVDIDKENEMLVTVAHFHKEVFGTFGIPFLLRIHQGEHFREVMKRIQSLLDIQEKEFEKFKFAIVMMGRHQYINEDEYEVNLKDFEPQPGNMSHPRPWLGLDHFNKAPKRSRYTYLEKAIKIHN
row,Compound,IC50
1,"N-(2-(2-((6,6-dimethyl-2,4-dioxo-3-azabicyclo[3.1.0]hexan-3-yl)methyl)thieno[3,2-b]pyridin-7-yl)-4-methyl-6-(trifluoromethyl)pyridin-3-yl)azetidine-3-carboxamide 2,2,2-trifluoroacetate [Example 28]",< 500 nM
2,"6,6-dimethyl-3-((7-(2-methyl-3-(pyrrolidin-3-ylamino)-6-(trifluoromethyl)pyridin-4-yl)thieno[3,2-b]pyridin-2-yl)methyl)-3-azabicyclo[3.1.0]hexane-2,4-dione 2,2,2-trifluoroacetate [Example 25]",< 500 nM
3,"Cc1ccnc(-c2ccnc3cc(CN4C(=O)C5C(C4=O)C5(C)C)sc23)c1C(O)[C@@H]1CNCCO1 (single isomer, unassigned) [Example 100, 2,2,2-trifluoroacetate]",1000 to 10000 nM
4,"ethyl 5-(2-((6,6-dimethyl-2,4-dioxo-3-azabicyclo[3.1.0]hexan-3-yl)methyl)thieno[3,2-b]pyridin-7-yl)-2-methyl-1-(((S)-morpholin-2-yl)methyl)-1H-pyrrole-3-carboxylate 2,2,2-trifluoroacetate [Example 148]",1000 to 10000 nM
5,"Cc1cc(C(F)(F)F)nc(-c2ccnc3cc(CN4C(=O)N(C)C5(CC5)C4=O)sc23)c1NC1CCNC1 (racemic) [Example 145, 4-methyl-6-((7-(4-methyl-3-(pyrrolidin-3-ylamino)-6-(trifluoromethyl)pyridin-2-yl)thieno[3,2-b]pyridin-2-yl)methyl)-4,6-diazaspiro[2.4]heptane-5,7-dione dihydrochloride]",< 500 nM
6,"Cc1cc(Cl)cc(-c2ccnc3cc(CC4C(=O)NCC4O)sc23)c1O[C@H]1CCCNC1 (stereo partly drawn) [Example 179, 3-((7-(5-chloro-3-methyl-2-(((S)-piperidin-3-yl)oxy)phenyl)thieno[3,2-b]pyridin-2-yl)methyl)-4-hydroxypyrrolidin-2-one 2,2,2-trifluoroacetate]",< 500 nM
7,"Cc1cc(C(F)(F)F)nc(-c2ccnc3cc(CN4C(=O)C5C(C4=O)C5(C)C)sc23)c1C(=O)N1C[C@@H](N)[C@@H](C)C1 (stereo partly drawn) [Example 106, 3-((7-(3-((3S,4S)-3-amino-4-methylpyrrolidine-1-carbonyl)-4-methyl-6-(trifluoromethyl)pyridin-2-yl)thieno[3,2-b]pyridin-2-yl)methyl)-6,6-dimethyl-3-azabicyclo[3.1.0]hexane-2,4-dione hydrochloride]",< 500 nM

# The remaining lines, values ahead:
row,IC50,Compound
1,< 500 nM,"Cc1cc(C(F)(F)F)nc(-c2ccnc3cc(CN4C(=O)C5C(C4=O)C5(C)C)sc23)c1C(=O)N1CC[C@@H]2CNC[C@@H]21 (stereo partly drawn) [Example 116, 6,6-dimethyl-3-((7-(4-methyl-3-((3aR,6aR)-octahydropyrrolo[3,4-b]pyrrole-1-carbonyl)-6-(trifluoromethyl)pyridin-2-yl)thieno[3,2-b]pyridin-2-yl)methyl)-3-azabicyclo[3.1.0]hexane-2,4-dione dihydrochloride]"
2,< 500 nM,"Cc1nc(C#N)cc(-c2ccnc3cc(CN4C(=O)C5C(C4=O)C5(C)C)sc23)c1NC1CCNC1 (stereo not drawn) [Example 26, 4-(2-((6,6-dimethyl-2,4-dioxo-3-azabicyclo[3.1.0]hexan-3-yl)methyl)thieno[3,2-b]pyridin-7-yl)-6-methyl-5-(pyrrolidin-3-ylamino)picolinonitrile 2,2,2-trifluoroacetate]"
3,1000 to 10000 nM,"Cc1nc(Cl)cc(-c2ccnc3cc(CN4C(=O)C5C(C4=O)C5(C)C)sc23)c1NC(=O)[C@@H]1CCNC1 (stereo partly drawn) [Example 120, (3R)—N-(6-chloro-4-(2-((6,6-dimethyl-2,4-dioxo-3-azabicyclo[3.1.0]hexan-3-yl)methyl)thieno[3,2-b]pyridin-7-yl)-2-methylpyridin-3-yl)pyrrolidine-3-carboxamide 2,2,2-trifluoroacetate]"
4,1000 to 10000 nM,"Cc1nc(C(F)(F)F)cc(-c2ccnc3cc(CN4C(=O)C5C(C4=O)C5(C)C)sc23)c1NC(=O)C(F)(F)F (stereo not drawn) [Example 62, N-(4-(2-((6,6-dimethyl-2,4-dioxo-3-azabicyclo[3.1.0]hexan-3-yl)methyl)thieno[3,2-b]pyridin-7-yl)-2-methyl-6-(trifluoromethyl)pyridin-3-yl)-2,2,2-trifluoroacetamide 2,2,2-trifluoroacetate]"
5,< 500 nM,"Cc1c([N+](=O)[O-])cc(-c2ccnc3cc(CN4C(=O)C5C(C4=O)C5(C)C)sc23)n1C[C@H]1CNCCO1 (stereo partly drawn) [Example 167, 6,6-dimethyl-3-((7-(5-methyl-1-(((R)-morpholin-2-yl)methyl)-4-nitro-1H-pyrrol-2-yl)thieno[3,2-b]pyridin-2-yl)methyl)-3-azabicyclo[3.1.0]hexane-2,4-dione hydrochloride]"
6,< 500 nM,"Cc1cc(C(F)(F)F)nc(-c2ccnc3cc(CN4C(=O)C5C(C4=O)C5(C)C)sc23)c1C(=O)N1CCC(N)CC1 (stereo not drawn) [Example 112, 3-((7-(3-(4-aminopiperidine-1-carbonyl)-4-methyl-6-(trifluoromethyl)pyridin-2-yl)thieno[3,2-b]pyridin-2-yl)methyl)-6,6-dimethyl-3-azabicyclo[3.1.0]hexane-2,4-dione dihydrochloride]"
7,< 500 nM,"Cc1cc(C#N)nc(-c2ccnc3cc(CN4C(=O)C5C(C4=O)C5(C)C)sc23)c1NC1CCNC1 (stereo not drawn) [Example 20, 6-(2-((6,6-dimethyl-2,4-dioxo-3-azabicyclo[3.1.0]hexan-3-yl)methyl)thieno[3,2-b]pyridin-7-yl)-4-methyl-5-(pyrrolidin-3-ylamino)picolinonitrile dihydrochloride]"
8,< 500 nM,"Cc1nc(Cl)cc(-c2ccnc3cc(CN4C(=O)C5C(C4=O)C5(C)C)sc23)c1NC(=O)C1CNC1 (stereo not drawn) [Example 29, N-(6-chloro-4-(2-((6,6-dimethyl-2,4-dioxo-3-azabicyclo[3.1.0]hexan-3-yl)methyl)thieno[3,2-b]pyridin-7-yl)-2-methylpyridin-3-yl)azetidine-3-carboxamide 2,2,2-trifluoroacetate]"
9,< 500 nM,"Cc1cc(C(F)(F)F)nc(-c2ccnc3cc(CN4C(=O)C5C(C4=O)C5(C)C)sc23)c1CC1CNCCO1 (racemic) [Example 92, 6,6-dimethyl-3-((7-(4-methyl-3-(morpholin-2-ylmethyl)-6-(trifluoromethyl)pyridin-2-yl)thieno[3,2-b]pyridin-2-yl)methyl)-3-azabicyclo[3.1.0]hexane-2,4-dione 2,2,2-trifluoroacetate]"
10,< 500 nM,"Cc1cc(Cl)cc(-c2ccnc3cc(CN4C(=O)C5C(C4=O)C5(C)C)sc23)c1NC1CCNC1 (stereo not drawn) [Example 175, 3-((7-(5-chloro-3-methyl-2-(pyrrolidin-3-ylamino)phenyl)thieno[3,2-b]pyridin-2-yl)methyl)-6,6-dimethyl-3-azabicyclo[3.1.0]hexane-2,4-dione hydrochloride]"

# Same assay, conditions: at 1 μM of the test compound; given where IC50 not determined yet; read-out: percent value of inhibition of USP7 activity
row,Compound,inhibition at 1 µM
1,"Cc1nc2c(-c3cc(Cl)cc(C)c3O[C@H]3CCCNC3)ccnc2[nH]1 [Example 67, (S)-7-(5-chloro-3-methyl-2-(piperidin-3-yloxy)phenyl)-2-methyl-3H-imidazo[4,5-b]pyridine hydrochloride]",< 20%
2,"Cc1cc(C#N)nc(-c2ccnc3cc(CN4C(=O)C5C(C4=O)C5(C)C)sc23)c1C(=O)N(C)CCN(C)C (stereo not drawn) [Example 42, 6-cyano-2-(2-((6,6-dimethyl-2,4-dioxo-3-azabicyclo[3.1.0]hexan-3-yl)methyl)thieno[3,2-b]pyridin-7-yl)-N-(2-(dimethylamino)ethyl)-N,4-dimethylnicotinamide]",< 20%
3,"Cc1cc(C(F)(F)F)nc(-c2ccnc3cc(CN4C(=O)C5C(C4=O)C5(C)C)sc23)c1CN1CCN(C)CC1=O (stereo not drawn) [Example 41, 6,6-dimethyl-3-((7-(4-methyl-3-((4-methyl-2-oxopiperazin-1-yl)methyl)-6-(trifluoromethyl)pyridin-2-yl)thieno[3,2-b]pyridin-2-yl)methyl)-3-azabicyclo[3.1.0]hexane-2,4-dione dihydrochloride]",< 20%

# The next lines start with the values.
row,inhibition at 1 µM,Compound
1,< 20%,"Cc1ccnc(-c2ccnc3cc(CN4C(=O)C5C(C4=O)C5(C)C)sc23)c1C(=O)N1CCC(F)(F)C1 (stereo not drawn) [Example 49, 3-((7-(3-(3,3-difluoropyrrolidine-1-carbonyl)-4-methylpyridin-2-yl)thieno[3,2-b]pyridin-2-yl)methyl)-6,6-dimethyl-3-azabicyclo[3.1.0]hexane-2,4-dione hydrochloride]"
2,< 20%,"CC1(C)C2C(=O)N(Cc3cc4nccc(-c5cc(F)cnc5O[C@H]5CCCNC5)c4s3)C(=O)C21 (stereo partly drawn) [Example 152, 3-((7-(5-fluoro-2-(((S)-piperidin-3-yl)oxy)pyridin-3-yl)thieno[3,2-b]pyridin-2-yl)methyl)-6,6-dimethyl-3-azabicyclo[3.1.0]hexane-2,4-dione dihydrochloride]"

# Same assay, conditions: read-out: percent value of inhibition of USP7 activity
row,Compound,inhibition at 1 µM
1,"Cc1cc(Cl)nc(-c2ccnc3cc(CN4C(=O)C5C(C4=O)C5(C)C)sc23)c1C(=O)N1CCNCC1 (stereo not drawn) [Example 135, 3-((7-(6-chloro-4-methyl-3-(piperazine-1-carbonyl)pyridin-2-yl)thieno[3,2-b]pyridin-2-yl)methyl)-6,6-dimethyl-3-azabicyclo[3.1.0]hexane-2,4-dione 2,2,2-trifluoroacetate]",< 20%
2,"CC1(C)C2C(=O)N(Cc3cc4nccc(-c5ncc[nH]5)c4s3)C(=O)C21 (stereo not drawn) [Example 146, 3-((7-(1H-imidazol-2-yl)thieno[3,2-b]pyridin-2-yl)methyl)-6,6-dimethyl-3-azabicyclo[3.1.0]hexane-2,4-dione 2,2,2-trifluoroacetate]",< 20%
